Assays:
[1] = target: T1, Prostaglandin G/H synthase 1 (Ovis aries) (UniProt P05979); assay: Inhibition of ovine COX1 using arachidonic acid as substrate at 30 uM preincubated for 10 mins before substrate addition measured after 5 mins by EIA
T1 sequence (whole entry): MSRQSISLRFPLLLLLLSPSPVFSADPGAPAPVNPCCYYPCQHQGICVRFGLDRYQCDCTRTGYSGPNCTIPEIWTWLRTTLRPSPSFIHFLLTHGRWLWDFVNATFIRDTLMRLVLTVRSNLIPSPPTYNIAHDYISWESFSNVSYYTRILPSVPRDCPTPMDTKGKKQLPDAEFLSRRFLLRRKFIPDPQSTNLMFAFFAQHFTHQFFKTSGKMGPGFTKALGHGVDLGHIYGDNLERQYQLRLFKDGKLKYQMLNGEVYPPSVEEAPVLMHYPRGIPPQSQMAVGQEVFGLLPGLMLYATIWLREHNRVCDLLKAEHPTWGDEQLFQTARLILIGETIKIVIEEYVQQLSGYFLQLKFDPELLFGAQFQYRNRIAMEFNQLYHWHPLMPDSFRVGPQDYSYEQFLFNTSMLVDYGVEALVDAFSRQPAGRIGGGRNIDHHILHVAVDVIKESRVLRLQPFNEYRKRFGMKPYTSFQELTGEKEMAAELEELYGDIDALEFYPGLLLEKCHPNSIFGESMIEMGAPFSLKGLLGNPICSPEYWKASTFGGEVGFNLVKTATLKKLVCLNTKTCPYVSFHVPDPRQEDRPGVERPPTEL

[2] = target: T2, Prostaglandin G/H synthase 2 (Ovis aries) (UniProt P79208); settings: 30 uM
T2 sequence (whole entry): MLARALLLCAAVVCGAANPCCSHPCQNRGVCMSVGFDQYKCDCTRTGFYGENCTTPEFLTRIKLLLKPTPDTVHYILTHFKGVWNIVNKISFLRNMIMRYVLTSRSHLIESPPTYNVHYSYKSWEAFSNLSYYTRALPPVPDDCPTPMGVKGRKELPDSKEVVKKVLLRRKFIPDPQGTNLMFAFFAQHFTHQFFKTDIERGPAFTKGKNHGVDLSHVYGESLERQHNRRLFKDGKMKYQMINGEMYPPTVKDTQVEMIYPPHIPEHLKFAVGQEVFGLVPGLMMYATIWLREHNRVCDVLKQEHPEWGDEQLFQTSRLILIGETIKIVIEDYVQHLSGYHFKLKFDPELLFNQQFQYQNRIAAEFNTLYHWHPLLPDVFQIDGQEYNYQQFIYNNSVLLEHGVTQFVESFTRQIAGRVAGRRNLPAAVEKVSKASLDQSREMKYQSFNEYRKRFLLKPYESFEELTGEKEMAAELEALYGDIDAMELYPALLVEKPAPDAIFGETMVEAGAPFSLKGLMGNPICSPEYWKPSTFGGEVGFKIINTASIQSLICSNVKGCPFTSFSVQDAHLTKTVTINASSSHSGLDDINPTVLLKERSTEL
Description: Inhibition of ovine COX2 using arachidonic acid as substrate at 30 uM preincubated for 10 mins before substrate addition measured after 5 mins by EIA

[3] = target: T3, Prostaglandin G/H synthase 1 (Ovis aries, UniProt P05979); assay: Inhibition of ovine COX1 using arachidonic acid as substrate preincubated for 10 mins before substrate addition measured after 5 mins by EIA
T3 sequence (P05979 whole entry): T1 sequence (whole entry)

Rattus norvegicus [4] = assay: Antiinflammatory activity in Sprague-Dawley rat assessed as inhibition of carrageenan-induced paw edema at 150 umol/kg, po administered 1 hr before carrageenan challenge measured after 3 hrs; format: functional
Rattus norvegicus [5] = assay: Antiinflammatory activity in Sprague-Dawley rat assessed as inhibition of carrageenan-induced paw edema at 150 umol/kg, po administered 1 hr before carrageenan challenge measured after 5 hrs; format: functional

inhibition [1] [%]	inhibition [2] [%]	IC50 [3] [µM]	Structure (SMILES)	inhibition in vivo at 150 µmol/kg (Rattus norvegicus [4]) [%]	inhibition in vivo at 150 µmol/kg (Rattus norvegicus [5]) [%]
51.4	47		CCCOc1c(C(C)=O)c(C)cc2cccc(O)c12		
70.9	62.6		CC(=O)c1c(C)cc2cccc(OC(C)C)c2c1O		
28.5	31.9		CCCCOc1cccc2cc(C)c(C(C)=O)c(O)c12		
67.1	61.5		COCOc1c(C(C)=O)c(C)cc2cccc(O)c12		
59.2	62.1		COc1cccc2c1C(=O)c1c(OC)cc(C)cc1C2=O		
44.3	81.5	> 30	C=CCOc1cccc2c1C(=O)c1c(OCC=C)cc(C)cc1C2=O	35.6	50.9
83.4	89.9	15.2	CC(=O)c1c(C)cc2cccc(OCc3ccccc3)c2c1O	30.3	54.2
80.6	75	17.2	COCOc1cccc2cc(C)c(C(C)=O)c(O)c12	36.4	55.8
65.5	55.5		COc1c(C(C)=O)c(C)cc2cccc(O)c12		
37.2	67.5		CC(=O)c1c(C)cc2cccc(O)c2c1OCc1ccccc1Br		
62.2	54.9		CC(=O)c1c(C)cc2cccc(O)c2c1OC(C)C		
67.1	82.1	22.2	CC(=O)c1c(C)cc2cccc(OCc3cccc(Cl)c3)c2c1O	26.6	37
64.2	77.8	> 30	Cc1cc(OCc2ccc(I)cc2)c2c(c1)C(=O)c1cccc(OCc3ccc(I)cc3)c1C2=O	36.1	54.6
29.4	42.1	46.2	Cc1cc(O)c2c(c1)C(=O)c1cccc(O)c1C2=O [CHRYSOPHANOL]		
39.6	58.7		CCCOc1cccc2c1C(=O)c1c(OCCC)cc(C)cc1C2=O		
43.7	55.5		CCOc1cccc2c1C(=O)c1c(OCC)cc(C)cc1C2=O		
27.2	62		Cc1cc(OCc2ccccc2Br)c2c(c1)C(=O)c1cccc(OCc3ccccc3Br)c1C2=O		
68.2	59.4	27.4	CC(=O)c1c(C)cc2cccc(O)c2c1O [NEPODIN]		
41.4	76.5	> 30	Cc1cc(OCc2ccccc2)c2c(c1)C(=O)c1cccc(OCc3ccccc3)c1C2=O	28.2	45.1
			CC(C)Cc1ccc(C(C)C(=O)O)cc1 (stereo not drawn) [IBUPROFEN]	32.3	43.5
53.5	35.4		CCCOc1cccc2cc(C)c(C(C)=O)c(O)c12		
26	42		CCCCOc1cccc2c1C(=O)c1c(OCCCC)cc(C)cc1C2=O		
25.4	61		Cc1cc(OCc2cccc(Cl)c2)c2c(c1)C(=O)c1cccc(OCc3cccc(Cl)c3)c1C2=O		
58.4	42.9		CCOc1c(C(C)=O)c(C)cc2cccc(O)c12		
69.8	61.7		COc1cccc2cc(C)c(C(C)=O)c(O)c12		
34.9	64.9		CC(=O)c1c(C)cc2cccc(O)c2c1OCc1cccc(Cl)c1		
63.6	83.1	24.5	CC(=O)c1c(C)cc2cccc(OCc3ccccc3Br)c2c1O	25.5	46.5
62.1	54.2		CCOc1cccc2cc(C)c(C(C)=O)c(O)c12		
40.2	37.9		CCCCOc1c(C(C)=O)c(C)cc2cccc(O)c12		
60.2	68.2		CC(=O)c1c(C)cc2cccc(O)c2c1OCc1ccccc1		

Reference: ChEMBL document CHEMBL3259581 (Eur J Med Chem, 2014)
